In patent US11369665B2, “Anti-inflammatory peptides and composition comprising the same” (GemVax & KAEL Co., Ltd., priority 2012, dated 2022):

Legend:
[1] = system: ACSL5 (acyl-coA synthase); test: qPCR array in THP-1 cells; type: cell-based, human; conditions: LPS 10 ng/mL, 4 μM PEP-1, 4 h
Method: (§1) THP-1 cells (human monocytic leukemia derived cell line) were purchased from ATCC ([…] TYPE CULTURE COLLECTION®, Manassas, Va., USA) and cultured in RPMI-1640 (LIFE TECHNOLOGIES®, Carlsbad, Calif., USA) medium supplemented with 10% FBS (LIFE TECHNOLOGIES®), 1% penicillin/streptomycin (LIFE TECHNOLOGIES®), and 0.05 mM 2-mercaptoethanol (SIGMA-ALDRICH®, St. Louis, Mo., USA) at 37° C. in 5% CO2. THP-1 cells that normally grow in suspension were differentiated into an adherent macrophage-like phenotype in differentiation medium (complete growth medium containing 100 ng/mL phorbol 12-myristate 13-acetate (PMA, SIGMA-ALDRICH®)) for 24 hr. For differentiation, THP-1 cells (3×10^6 cells/plate, ˜95% confluency) were seeded into 10-cm tissue culture plates and incubated in differentiation medium.
(§2) Following differentiation, the macrophage-like THP-1 cells were washed twice using complete growth medium. Then, cells were treated with 10 ng/mL lipopolysaccharide (SIGMA-ALDRICH®) and/or 4 μM PEP-1 for 4 h at 37° C.
(§3) Total RNA was extracted and purified using RNeasy mini kit from QIAGEN® (Valencia, Calif., USA) following manufacturer's protocol. cDNAs were synthesized by reverse transcription using Reverse Transcription System from PROMEGA CORPORATION® (Madison, Wis., USA) according to the manufacturer's protocol.
(§4) Then, cDNA samples from THP-1 cells were used as template for real-time quantitative PCR (qPCR) analysis. For qPCR analysis, RT2 Profiler PCR Array kits were purchased from SABIOSCIENCES®/QIAGEN® (Valencia, Calif. USA). Four different PCR array kits analyzing separate signaling pathways used in the experiment are as follows: human signal transduction pathway finder, human inflammatory cytokines & receptors, human transcription factors, human NF-κB signaling pathway. PCR was performed with SYBR® Green qPCR detection system (QIAGEN®) using a BIO-RAD® (Hercules, Calif., USA) CFX 96 real-time PCR instrument. Thermocycling conditions were: 95° C. for 10 sec; 55° C. for 30 sec; 95° C. for 10 min; 95° C. for 10 sec, 55° C. for 30 sec, and 72° C. for 30 sec for 50 amplification cycles. Data represents the average value from three independent experiments, and % decrease was determined by the target gene expression in LPS treated samples vs. LPS+PEP-1 treated samples. Among 336 genes analyzed, only those showing statistically significant (p<0.05, student's t-test) % decrease were shown in table 7.

CD40Ligand = test: qPCR array in THP-1 cells; type: cell-based, human; conditions: LPS 10 ng/mL, 4 μM PEP-1, 4 h
Method: as §1, §2, §3, §4

CCL26/MIP4α = test: qPCR array in THP-1 cells; type: cell-based, human; conditions: LPS 10 ng/mL, 4 μM PEP-1, 4 h
Method: as §1, §2, §3, §4

G-CSF = test: qPCR array in THP-1 cells; type: cell-based, human; conditions: LPS 10 ng/mL, 4 μM PEP-1, 4 h
Method: as §1, §2, §3, §4

GM-CSF = test: qPCR array in THP-1 cells; type: cell-based, human; conditions: LPS 10 ng/mL, 4 μM PEP-1, 4 h
Method: as §1, §2, §3, §4

TNFR11B = test: qPCR array in THP-1 cells; type: cell-based, human; conditions: LPS 10 ng/mL, 4 μM PEP-1, 4 h
Method: as §1, §2, §3, §4

ILlRa = test: qPCR array in THP-1 cells; type: cell-based, human; conditions: LPS 10 ng/mL, 4 μM PEP-1, 4 h
Method: as §1, §2, §3, §4

CCL4/MIP1β = test: qPCR array in THP-1 cells; type: cell-based, human; conditions: LPS 10 ng/mL, 4 μM PEP-1, 4 h
Method: as §1, §2, §3, §4

IkBα = test: qPCR array in THP-1 cells; type: cell-based, human; conditions: LPS 10 ng/mL, 4 μM PEP-1, 4 h
Method: as §1, §2, §3, §4

IL17C = test: qPCR array in THP-1 cells; type: cell-based, human; conditions: LPS 10 ng/mL, 4 μM PEP-1, 4 h
Method: as §1, §2, §3, §4

IL10 = test: qPCR array in THP-1 cells; type: cell-based, human; conditions: LPS 10 ng/mL, 4 μM PEP-1, 4 h
Method: as §1, §2, §3, §4

TNFα = test: qPCR array in THP-1 cells; type: cell-based, human; conditions: LPS 10 ng/mL, 4 μM PEP-1, 4 h
Method: as §1, §2, §3, §4

BCL10 = test: qPCR array in THP-1 cells; type: cell-based, human; conditions: LPS 10 ng/mL, 4 μM PEP-1, 4 h
Method: as §1, §2, §3, §4

HMGB1 = test: Western blot of expression level, LPS-stimulated cells; type: cell-based; conditions: LPS 1 μg/ml, PEP 1 5 μg/ml
Method: (§5) Raw 264.7 macrophage cell (KCBL, 40071) from Korea Cell Bank was maintained in Dulbecco's modified Eagle's medium (DMEM; PAA, Austria) containing 10% fetal bovine serum (FBS; GIBCO®), 100 unit/mL of streptomycin, and penicillin (Gibco Laboratories) at 37° C. with 5% CO2. Raw 264.7 cells were seeded into a 96-well plate at a density of 1×10^6 cells/mL and incubated overnight.
(§6) On the following day, the medium was replaced with fresh medium and 5 μg/mL of peptide (obtained as described in Experiment example 1) was added to the cells. After 30 min incubation of cells with the peptide 50 μL of LPS (to a final concentration of 1 μg/mL) was added, and cells were incubated for additional 24 hr. The experimental sample with the induction of inflammatory response was treated with 1 μg/mL mL lipopolysaccharide (LPS; SIGMA-ALDRICH®, USA) and control sample was treated with phosphate buffered saline (PBS; pH 7.2). The supernatant samples from each condition was collected in eppendorf tubes and subjected to further analysis.
(§7) Protein expression level was determined by Western blot analysis. Cells grown in PEP-1 containing medium were washed with PBS, treated with 0.05% trypsin-EDTA, and collected by centrifugation. The collected cells were dissolved in an appropriate volume of lysis buffer. Intracellular debris was pelleted by centrifugation, and equal amount of protein from each sample was separated by SDS-polyacrylamide gel electrophoresis. The separated protein was transferred to nitrocellulose membrane (Schleicherand Schuell, Keene, N.H., USA), then was tested for the antibody specific for each protein. The membrane was incubated with ECL (enhanced chemiluminoesence) solution ([…]®), exposed to X-ray, and the level of protein expression was analyzed according to the exposure level shown on the X-ray film.

TNF-α = test: as above; type: cell-based; conditions: LPS 1 μg/ml, PEP 1 5 μg/ml
Method: as §5, §6, §7

COX-2 = test: as above; type: cell-based; conditions: LPS 1 μg/ml, PEP 1 5 μg/ml
Method: as §5, §6, §7

EARPALLTSRLRFIPK [PEP-1]
ACSL5 (acyl-coA synthase) % Decrease by PEP 1 (LPS + PEP-1/LPS), p < 0.05 [1]: ↓17%
CD40Ligand % Decrease by PEP 1 (LPS + PEP-1/LPS), p < 0.05 (CD40Ligand): ↓18%
CCL26/MIP4α % Decrease by PEP 1 (LPS + PEP-1/LPS), p < 0.05 (CCL26/MIP4α): ↓↓↓42%
G-CSF % Decrease by PEP 1 (LPS + PEP-1/LPS), p < 0.05 (G-CSF): ↓↓↓48%
GM-CSF % Decrease by PEP 1 (LPS + PEP-1/LPS), p < 0.05 (GM-CSF): ↓↓29%
TNFR11B % Decrease by PEP 1 (LPS + PEP-1/LPS), p < 0.05 (TNFR11B): ↓↓↓38%
ILlRa % Decrease by PEP 1 (LPS + PEP-1/LPS), p < 0.05 (ILlRa): ↓20%
CCL4/MIP1β % Decrease by PEP 1 (LPS + PEP-1/LPS), p < 0.05 (CCL4/MIP1β): ↓22%
IkBα % Decrease by PEP 1 (LPS + PEP-1/LPS), p < 0.05 (IkBα): ↓↓27%
IL17C % Decrease by PEP 1 (LPS + PEP-1/LPS), p < 0.05 (IL17C): ↓↓35%
IL10 % Decrease by PEP 1 (LPS + PEP-1/LPS), p < 0.05 (IL10): ↓↓32%
TNFα % Decrease by PEP 1 (LPS + PEP-1/LPS), p < 0.05 (TNFα): ↓↓34%
BCL10 % Decrease by PEP 1 (LPS + PEP-1/LPS), p < 0.05 (BCL10): ↓↓32%
HMGB1 Cytokine Expression Level (band intensity) % of control (HMGB1): 30%
TNF-α Cytokine Expression Level (band intensity) % of control (TNF-α): 25%
COX-2 Cytokine Expression Level (band intensity) % of control (COX-2): 22%
